According to US20260193293A1, “PEPTIDES CAPABLE OF INHIBITING PROTEIN-PROTEIN INTERACTIONS AT GABAB1A SUBUNIT AND USES THEREOF” (UNIVERSITY OF COPENHAGEN, priority 2022, published 2026):
Read-outs that look alike come from different tables or passages of the source. Non-standard residues stand in square brackets, D forms with d. Residues, ends and D or L forms follow the SMILES beside them. *: point of attachment. NMeT = CN[C@H](C(=O)O)[C@@H](C)O; NMeE = CN[C@@H](CCC(=O)O)C(=O)O; Bn = c1ccc(C*)cc1; Sar = CNCC(=O)O

Molecular target: Sushi domains (SD1/2) protein
Assay: Fluorescence polarization (FP) competition assay with AJAP-1probe, calculated Ki
Type: binding
Protocol: Fluorescence polarization (FP). FP assay was employed to determine the binding affinity of peptides in flat bottom black 384-well plates (Corning Life Science) using a Safire2 plate reader (Tecan). All experiments were conducted in 1×PBS (pH 7.4) containing 1% bovine serum albumin (BSA) at rt. The fluorescence polarization values were measured using excitation/emission wavelengths of 530/580 nm. The instrumental Z-factor was adjusted to obtain the maximum fluorescence intensity and the G-factor was calibrated to give an initial millipolarization value of 20 mP. All FP assays including saturation or competition experiments were performed using 25 nM of TAMRA labeled peptides as probes. For saturation assay, the millipolarization values were measured after mixing of probes with 12 serial 1 to 1 diluted concentrations of Sushi domains (SD1/2) protein. All experiments were performed in triplicate and the data were plotted to the one-site binding model using GraphPad Prism 9 to calculate the Kd of probes. […] The experiments were performed at least in triplicate and the data were fitted to the sigmoidal dose response curve using GraphPad Prism 9 to obtain the IC50 of peptides. The Ki values were calculated according to Nikolovska-Coleska et al^310.

[1] = Table 5, elongation and truncation scan of AJAP-1 binding epitope, read-out: Ki (nM) mean ± SEM
[2] = Table 16, ncAAs incorporated peptides, read-out: Ki (nM) mean ± SEM
[3] = Table 11, deep mutational scanning validation variants of AJAP-1WT, read-out: Ki (nM) mean ± SEM
[4] = Table 7, Ala-, D-amino acids and N-methylation scans of APPWT, read-out: Ki (nM) mean ± SEM
[5] = Table 10, deep mutational scanning validation variants of APPWT, read-out: Ki (nM) mean ± SEM

## CC[C@H](C)[C@H](NC(=O)[C@H](Cc1ccccc1)NC(=O)[C@H](CCC(=O)O)NC(C)=O)C(=O)N[C@@H](C)C(=O)N[C@@H](Cc1c[nH]c2ccccc12)C(=O)NCC(=O)N1CCC[C@H]1C(=O)N[C@H](C(=O)NCC(=O)N[C@@H](CC(=O)O)C(=O)N[C@@H](CCC(=O)O)C(=O)N[C@@H](CC(=O)O)C(N)=O)[C@@H](C)O [EFIAWGPTGDED] (Ac-EFIAWGPTGDED-NH2)
[1]
  Ki: 112 ± 1 nM

## CC(=O)N[C@@H](CC(=O)O)C(=O)N[C@@H](CC(=O)O)C(=O)N[C@@H](CO)C(=O)N[C@@H](CC(=O)O)C(=O)N[C@H](C(=O)N[C@@H](Cc1c[nH]c2ccccc12)C(=O)N[C@@H](Cc1c[nH]c2ccccc12)C(=O)NCC(=O)NCC(N)=O)C(C)C (Ac-DDSDVWWGG-NH2)
Table 3, SPOT hit validation and previously reported peptides, read-out: Ki (nM) mean ± SEM
  Ki: 2630 ± 97 nM

## CCOc1ccc(C[C@H](NC(=O)[C@H](CC(=O)O)NC(=O)[C@H](CC(=O)O)NC(=O)[C@H](CC(=O)O)NC(=O)[C@H](CCC(=O)O)NC(C)=O)C(=O)N[C@H](C(=O)N[C@@H](CC(=O)O)C(=O)N[C@@H](Cc2c[nH]c3ccccc23)C(=O)N[C@@H](Cc2ccc(O)cc2)C(=O)N[C@@H](CC(=O)O)C(=O)N[C@@H](CO)C(=O)N[C@@H](CC(=O)O)C(=O)N[C@@H](CC(=O)O)C(=O)N[C@@H](CC(=O)O)C(N)=O)[C@@H](C)CC)cc1 [Peptide 32]
Table 1, affinity maturation, mean ± SEM, n ≥ 3, read-out: Ki
  Ki: 5.3 ± 0.2 nM
[2]
  Ki: 5.3 ± 0.2 nM

## CC[C@H](C)[C@H](NC(=O)[C@H](Cc1c[nH]c2ccccc12)NC(=O)[C@H](CC(=O)O)NC(=O)[C@H](CC(=O)O)NC(=O)[C@H](CC(=O)O)NC(=O)[C@H](CCC(=O)O)NC(C)=O)C(=O)N[C@@H](CC(=O)O)C(=O)N[C@@H](Cc1c[nH]c2ccccc12)C(=O)N[C@@H](Cc1ccc(O)cc1)C(=O)N[C@@H](CC(=O)O)C(=O)N[C@@H](CO)C(=O)N[C@@H](CC(=O)O)C(=O)N[C@@H](CC(=O)O)C(=O)N[C@@H](CC(=O)O)C(=O)N[C@@H](CCCNC(=N)N)C(=O)N[C@@H](CCCNC(=N)N)C(=O)N[C@@H](CCCNC(=N)N)C(=O)N[C@@H](CCCNC(=N)N)C(=O)N[C@@H](CCCNC(=N)N)C(=O)N[C@@H](CCCNC(=N)N)C(=O)N[C@@H](CCCNC(=N)N)C(=O)N[C@@H](CCCNC(=N)N)C(N)=O [Peptide 16-R8] (Ac-EDDDWIDWYDSDDDRRRRRRRR-NH2)
CPP tagged peptides overview, SD1/2 binding affinity, mean ± SEM, n ≥ 3, read-out: Ki
  Ki: 65 ± 1 nM
Table 14, CPPs tagged peptides, read-out: Ki (nM) mean ± SEM
  Ki: 65.3 ± 1 nM

## CC[C@H](C)[C@H](NC(=O)[C@H](Cc1ccccc1)NC(=O)[C@H](CO)NC(=O)[C@@H](NC(=O)[C@H](CCC(=O)O)NC(C)=O)[C@@H](C)O)C(=O)N[C@@H](C)C(=O)N[C@@H](Cc1c[nH]c2ccccc12)C(=O)NCC(=O)N1CCC[C@H]1C(=O)N[C@H](C(=O)NCC(=O)N[C@@H](CC(=O)O)C(=O)N[C@@H](CCC(=O)O)C(=O)N[C@@H](CC(=O)O)C(N)=O)[C@@H](C)O [ETSFIAWGPTGDED] (Ac-ETSFIAWGPTGDED-NH2)
[3]
  Ki: 34 ± 1 nM

## CC[C@H](C)[C@H](NC(=O)[C@H](Cc1ccccc1)NC(=O)[C@H](CCC(=O)O)NC(=O)[C@@H](NC(C)=O)[C@@H](C)O)C(=O)N[C@@H](C)C(=O)N[C@@H](Cc1c[nH]c2ccccc12)C(=O)NCC(=O)N1CCC[C@H]1C(=O)N[C@H](C(=O)NCC(=O)N[C@@H](CC(=O)O)C(=O)N[C@@H](CCC(=O)O)C(=O)N[C@@H](CC(=O)O)C(N)=O)[C@@H](C)O [TEFIAWGPTGDED] (Ac-TEFIAWGPTGDED-NH2)
[1]
  Ki: 102 ± 4 nM

## CC[C@H](C)[C@H](NC(=O)[C@H](Cc1ccccc1)NC(=O)[C@H](Cc1c[nH]c2ccccc12)NC(=O)[C@@H]1CCCN1C(C)=O)C(=O)N[C@H](C(=O)N[C@@H](Cc1c[nH]c2ccccc12)C(=O)NCC(=O)N1CCC[C@H]1C(=O)N[C@H](C(=O)N[C@H](C(=O)N[C@@H](CO)C(=O)N[C@@H](CC(=O)O)C(=O)N[C@@H](CCC(=O)O)C(=O)N[C@@H](CC(=O)O)C(N)=O)C(C)C)[C@@H](C)O)C(C)C [PWFIVWGPTVSDED] (Ac-PWFIVWGPTVSDED-NH2)
Table 12, deep mutational scanning validation variants of PIANPWT, read-out: Ki (nM) mean ± SEM
  Ki: 192 ± 4 nM

## CC[C@H](C)[C@H](NC(=O)[C@H](Cc1c[nH]c2ccccc12)NC(=O)[C@H](CCC(=O)O)NC(=O)[C@@H](NC(=O)[C@H](CCC(=O)O)NC(C)=O)[C@@H](C)O)C(=O)N[C@@H](C)C(=O)N[C@@H](Cc1c[nH]c2ccccc12)C(=O)NCC(=O)N1CCC[C@H]1C(=O)N[C@H](C(=O)NCC(=O)N[C@@H](CC(=O)O)C(=O)N[C@@H](CCC(=O)O)C(=O)N[C@@H](CC(=O)O)C(N)=O)[C@@H](C)O [ETEWIAWGPTGDED] (Ac-ETEWIAWGPTGDED-NH2)
[3]
  Ki: 35 ± 2 nM

## CC(=O)N[C@@H](CCC(=O)O)C(=O)N[C@@H](CC(=O)O)C(=O)N[C@@H](CC(=O)O)C(=O)N[C@@H](CO)C(=O)N[C@@H](Cc1ccc(OCc2ccccc2)cc1)C(=O)N[C@H](C(=O)N[C@@H](Cc1c[nH]c2ccccc12)C(=O)N[C@@H](Cc1c[nH]c2ccccc12)C(=O)NCC(=O)NCC(=O)N[C@@H](C)C(=O)N[C@@H](CC(=O)O)C(=O)N[C@H](C(=O)N[C@@H](CC(=O)O)C(N)=O)[C@@H](C)O)C(C)C (Ac-EDDSY(Bn)VWWGGADTD-NH2)
[2]
  Ki: 28 ± 1 nM
Purified peptides, read-out: Ki
  Ki: 27.1 nM
Relative to Asp207Trp mutant of APPWT
  fold increased affinity compared to Asp207Trp: 4 fold

## CC[C@H](C)[C@H](NC(=O)[C@H](Cc1ccccc1)NC(=O)[C@H](CCC(=O)O)NC(=O)[C@@H](NC(=O)[C@H](CCC(=O)O)NC(C)=O)[C@@H](C)O)C(=O)N[C@@H](C)C(=O)N[C@@H](Cc1c[nH]c2ccccc12)C(=O)N[C@@H](Cc1c[nH]cn1)C(=O)N1CCC[C@H]1C(=O)N[C@H](C(=O)NCC(=O)N[C@@H](CC(=O)O)C(=O)N[C@@H](CCC(=O)O)C(=O)N[C@@H](CC(=O)O)C(N)=O)[C@@H](C)O [ETEFIAWHPTGDED] (Ac-ETEFIAWHPTGDED-NH2)
[3]
  Ki: 240 ± 7 nM

## CC(=O)N[C@@H](CCC(=O)O)C(=O)N[C@@H](CC(=O)O)C(=O)N[C@@H](CC(=O)O)C(=O)N[C@@H](CO)C(=O)N[C@@H](CC(=O)O)C(=O)N[C@H](C(=O)N[C@@H](Cc1c[nH]c2ccccc12)C(=O)N[C@@H](Cc1c[nH]c2ccccc12)C(=O)N(C)CC(=O)NCC(=O)N[C@@H](C)C(=O)N[C@@H](CC(=O)O)C(=O)N[C@H](C(=O)N[C@@H](CC(=O)O)C(N)=O)[C@@H](C)O)C(C)C (Ac-EDDSDVWW[Sar]GADTD-NH2)
[4]
  Ki: 18900 ± 554 nM

## CC(=O)N[C@@H](CCC(=O)O)C(=O)N[C@@H](CC(=O)O)C(=O)N[C@@H](CC(=O)O)C(=O)N[C@@H](CO)C(=O)N[C@@H](Cc1ccc(O)cc1)C(=O)N[C@H](C(=O)N[C@@H](Cc1c[nH]c2ccccc12)C(=O)N[C@@H](Cc1c[nH]c2ccccc12)C(=O)NCC(=O)NCC(=O)N[C@@H](C)C(=O)N[C@@H](CC(=O)O)C(=O)N[C@H](C(=O)N[C@@H](CC(=O)O)C(N)=O)[C@@H](C)O)C(C)C (Ac-EDDSYVWWGGADTD-NH2)
[5]
  Ki: 191 ± 10 nM

## CC[C@H](C)[C@H](NC(=O)[C@H](Cc1ccccc1)NC(=O)[C@H](CCC(=O)O)NC(=O)[C@@H](NC(=O)[C@H](CCC(=O)O)NC(C)=O)[C@@H](C)O)C(=O)N[C@@H](Cc1c[nH]cn1)C(=O)N[C@@H](Cc1c[nH]c2ccccc12)C(=O)NCC(=O)N1CCC[C@H]1C(=O)N[C@H](C(=O)NCC(=O)N[C@@H](CC(=O)O)C(=O)N[C@@H](CCC(=O)O)C(=O)N[C@@H](CC(=O)O)C(N)=O)[C@@H](C)O [ETEFIHWGPTGDED] (Ac-ETEFIHWGPTGDED-NH2)
[3]
  Ki: 24 ± 1 nM

## CC[C@H](C)[C@H](NC(=O)[C@H](CO)NC(=O)[C@H](CC(=O)O)NC(=O)[C@H](CC(=O)O)NC(=O)[C@H](CCC(=O)O)NC(C)=O)C(=O)N[C@H](C(=O)N[C@@H](Cc1c[nH]c2ccccc12)C(=O)N[C@@H](Cc1c[nH]c2ccccc12)C(=O)NCC(=O)NCC(=O)N[C@@H](C)C(=O)N[C@@H](CC(=O)O)C(=O)N[C@H](C(=O)N[C@@H](CC(=O)O)C(N)=O)[C@@H](C)O)C(C)C (Ac-EDDSIVWWGGADTD-NH2)
[5]
  Ki: 243 ± 3 nM

## CC(=O)N[C@@H](CCC(=O)O)C(=O)N[C@@H](CC(=O)O)C(=O)N[C@@H](CC(=O)O)C(=O)N[C@@H](CO)C(=O)N[C@@H](CC(=O)O)C(=O)N[C@H](C(=O)N[C@@H](Cc1c[nH]c2ccccc12)C(=O)N[C@@H](Cc1c[nH]c2ccccc12)C(=O)NCC(=O)NCC(=O)N[C@@H](C)C(=O)N[C@@H](CC(=O)O)C(=O)N(C)[C@H](C(=O)N[C@@H](CC(=O)O)C(N)=O)[C@@H](C)O)C(C)C (Ac-EDDSDVWWGGAD[NMeT]D-NH2)
[4]
  Ki: 503 ± 13 nM

## CC[C@H](C)[C@H](NC(=O)[C@H](Cc1ccccc1)NC(=O)[C@H](CCC(=O)O)NC(=O)[C@@H](NC(=O)[C@H](CCC(=O)O)NC(C)=O)[C@@H](C)O)C(=O)N[C@@H](C)C(=O)N[C@@H](Cc1c[nH]c2ccccc12)C(=O)NCC(=O)N1CCC[C@H]1C(=O)N[C@H](C(=O)NCC(=O)N[C@@H](CC(=O)O)C(=O)N(C)[C@@H](CCC(=O)O)C(=O)N[C@@H](CC(=O)O)C(N)=O)[C@@H](C)O (Ac-ETEFIAWGPTGD[NMeE]D-NH2)
Table 8, Ala-, D-amino acids and N-methylation scans of AJAP-1WT, read-out: Ki (nM) mean ± SEM
  Ki: 31 ± 1 nM
